Test results as given in US20110158907A1, “DIPHENYL-HETEROARYL DERIVATIVES AND THEIR USE FOR BINDING AND IMAGING AMYLOID PLAQUES” (The Trustees of the Univeristy of Pennsylvania, priority 2007, published 2011).
Read-outs that look alike come from different tables or passages of the source. Values belong to the compound of their own block, whether it stands above or below them.

How the values were obtained:
fibrillar Aβ aggregates = fibrillar Aβ aggregates (Homo sapiens, UniProt P05067); conditions: read-out: inhibition constants (Ki) for binding to fibrillar Aβ aggregates; cited from earlier work
Amyloid Plaque [1] = biological target: T1, Amyloid Plaque (Homo sapiens, UniProt P05067); assay: Inhibition of ^125I-IMPY binding in AD brain homogenates; conditions: read-out: Binding Affinity (Ki vs. ^125I-IMPY)
Description: Postmortem brain tissue was obtained and neuropathological diagnosis was confirmed in accordance with the NIA-Reagan Institute Consensus Group criteria. Homogenates were then prepared from dissected gray matter, pooled in phosphate buffered saline and aliquoted into 1-ml portions (100 mg wet tissue/ml), which could be stored at −70° C. for 3-6 months without loss of binding signal.
For the binding assays brain homogenates were incubated with ^125I-IMPY (0.04-0.06 nM diluted in phosphate buffered saline (PBS)) and test compound (10^−5-10^−10 M diluted in PBS containing 0.1% bovine serum albumin (BSA)). Nonspecific binding was defined in the presence of IMPY (600 nM). The bound and free radioactivity was separated by vacuum filtration followed by 2×3 ml washes of PBS. Filters containing the bound ^125I ligand were assayed in a gamma counter.

CNS receptors = assay: Selectivity against CNS receptors; conditions: cell wraps r7-r10: No high affinity binding to any CNS receptors
[2] = Organ distribution of ^123I-33 in normal mice; type: in vivo, ICR mice; conditions: i.v.; for Biodistribution Brain / % total counted / Biodistribution Pancreas / Biodistribution Pancrease: normal male mice
Description: Total activities of blood were calculated under the assumption that they were 7% of the total body weight.

Amyloid Plaque [3] = biological target: T1, Amyloid Plaque; conditions: AD brain homogenates; read-out: Binding Affinity (Ki vs. ^125I-IMPY), published values; cited from earlier work
[4] = tested on: Aβ plaques in AD brain tissue homogenates; assay: Specific binding of radiolabeled ligands to AD and control brain tissue homogenates; parameters: species or system human; conditions: for specific binding, gray matter homogenates of AD / specific binding, white matter homogenates of AD brain: 0.06 nM [^125I]probe, 0.5 nM [^18F]probe
Description: FIG. 6 depicts specific binding of preferred embodiments of the present invention to pooled AD and control brain tissue homogenates. Gray and white matters were dissected from the cortical regions. Higher specific binding was detected mainly in gray matter of AD. Relatively low binding was measured in white matter homogenates of AD as well as in gray and white matter homogenates of the control brain.
AD postmortem brain tissues were obtained from University of Washington Alzheimer's Disease Research Center. The neuropathological diagnosis was confirmed by current criteria (NIA-Reagan Institute Consensus Group, 1997). Homogenates were then prepared from dissected gray matters from four pooled AD patients in phosphate buffered saline (PBS, pH 7.4) at the concentration of approximately 100 mg wet tissue/ml (motor-driven glass homogenizer with setting of 6 for 30 sec). The homogenates were aliquoted into 1 mL-portions and stored at −70° C. for up to 2 years without loss of binding signal.
Similarly, the specific binding of radioiodinated and radiofluorinated ligands (0.06 nM for [^125I]probe and 0.5 nM for [^18F]probe to homogenates, prepared from the gray and white matters of AD and control brain tissues, were carried out as described above. Nonspecific binding was determined in the presence of 2 μM of the corresponding nonradioactive probes.
To further characterize the specificity of plaque binding, we evaluated [^125I]10a and [^18F]17a by a direct in vitro binding assay using homogenates (from different brain regions) prepared from AD and control brain tissues.

[5] = tested on: Aβ plaques in AD brain sections; assay: In vitro film autoradiography of macroarray brain sections; type: binding, human
Text: FIG. 5 depicts in vitro film autoradiography of macroarray brain sections constructed from AD and control cases. The Aβ plaques were clearly visualized with low background labeling with two preferred radiofluorinated probes of the present invention.
(§1) To compare different probes using similar sections of human brain tissue, human macro-array brain sections from 6 confirmed AD cases and one control subject were assembled. The presence and localization of plaques on the sections was confirmed with immunohistochemical staining with monoclonal Aβ antibody 4G8 (Sigma). The frozen sections were incubated with [^125I] and [^18F]tracers (200,000-250,000 cpm/200 μL) for 1 h at room temperature. The sections were then dipped in saturated lithium carbonate in 40% EtOH (two two-minute washes) and washed with 40% EtOH (one two-minute wash) followed by rinsing with water for 30 sec. After drying, the ^125I- or ^18F-labeled sections were exposed to Kodak Biomax MR film overnight.
[^18F]tracers: Brain sections from AD subjects were obtained by freezing the brain in powdered dry ice and cut into 20 micrometer-thick sections. The sections were incubated with [^18F]tracers (200,000-250,000 cpm/200 μl) for 1 hr at room temperature. The sections were then dipped in saturated Li2CO3 in 40% EtOH (two two-minute washes) and washed with 40% EtOH (one two-minute wash) followed by rinsing with water for 30 sec. After drying, the ^18F-labeled sections were exposed to Kodak MR film overnight. The results are depicted in the film in FIG. 2.
as §1, with “[^125I]tracers: To” for “To”, “The” for “The frozen”, “[^125I]tracers” for “[^125I] and [^18F]tracers”, “Li2CO3” for “lithium carbonate”, “^125I-labeled” for “^125I- or ^18F-labeled”
A macro-array block was constructed using postmortem human brain samples consisting of seven confirmed AD cases. […] In vitro film autoradiography was carried out using these novel ^125I or ^18F labeled diphenyltriazole probes. […] The labeling pattern was consistent with that observed by immunohistochemical labeling with an antibody (4G8) specific for Aβ (data not shown).

[6] = Partition coefficient (1-octanol/buffer); type: physicochemical; conditions: 1-octanol / 0.1 M phosphate buffer pH 7.4
Description: Partition coefficients were measured by mixing the [^125I] or [^18F]tracer with 3 g each of 1-octanol and buffer (0.1 M phosphate, pH 7.4) in a test tube. The test tube was vortexed for 3 min at room temperature, followed by centrifugation for 5 min. Two weighed samples (0.5 g each) from the 1-octanol and buffer layers were counted in a well counter. The partition coefficient was determined by calculating the ratio of cpm/g of 1-octanol to that of buffer. Samples from the 1-octanol layer were re-partitioned until consistent partitions of coefficient values were obtained. The measurement was done in triplicate and repeated three times.
Partition coefficients were measured by mixing ^123I-33 with 3 g each of 1-octanol and buffer (0.1 M phosphate, pH 7.4) in a test tube. The test tube was vortexed for 3 min at room temperature, followed by centrifugation for 5 min. Two weighed samples (0.5 g each) from the 1-octanol and the buffer layer were counted in a well counter. The partition coefficient was determined by calculating the ratio of cpm/g of 1-octanol to that of the buffer. Samples from the 1-octanol layer were repartitioned until consistent partitions of,coefficient values were obtained from the third partition. The measurement was done in triplicate and repeated three times.

[7] = mouse; for brain washout index (brain2 min/brain30 min) / remaining in the brain: in vivo; for remaining in the brain: 2 h
Description: (§2) While under isoflurane anesthesia, 0.15 mL of a 0.1% bovine serum albumin solution containing [^125I] or [^18F]tracers (5-10 μCi) was injected directly into the tail vein of ICR mice (22-25 g, male). The mice (n=3 for each time point) were sacrificed by cervical dislocation at designated time-points post injection. The organs of interest were removed and weighed, and the radioactivity was counted with an automatic gamma counter. The percentage dose per organ was calculated by a comparison of the tissue counts to suitably diluted aliquots of the injected material. The total activity of the blood was calculated under the assumption that it is 7% of the total body weight. The % dose/g of samples was calculated by comparing the sample counts with the count of the diluted initial dose.

[8] = Organ distribution of [^125I] or [^18F]tracers in normal mice
Description: as §2

[9] = Estimate of human dosimetry extrapolated from the mouse data; conditions: proposed 5 mCi human dose
Description: When administered i.v. to male mice, ^123I-33 entered the brain quickly and reached a peak brain concentration of 3.7% dose/g within 2 min post administration and fell to 0.25% dose/g within 60 min. […] At the proposed 5 mCi human dose the lower large intestine is estimated to receive approximately 3.8 rem, while the upper large intestine is estimated to receive approximately 3.3 rem of exposure.

Aβ plaques = assay: Labeling of Aβ plaques in AD sections by ^123I-33 at tracer concentrations; type: binding, human

T1 sequence (P05067 672-711 limits assumed): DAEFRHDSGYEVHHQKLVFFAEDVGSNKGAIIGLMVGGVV
Chain of fibrillar Aβ aggregates (P05067 672-711 limits assumed): as above

SMILES: O=C(O)c1cc(/N=N/c2ccc(-c3ccc(/N=N/c4ccc(O)c(C(=O)O)c4)cc3)cc2)ccc1O [CG, chrysamine-G]
Ki (fibrillar Aβ aggregates): 370 nM

Ki (Amyloid Plaque [1]): 7.5 ± 0.5 nM
Selectivity (CNS receptors): No high
Biodistribution Brain ([2]; 2 min): 3.69 ± 0.14 % dose/g
Biodistribution Brain ([2]; 60 min): 0.25 ± 0.03 % dose/g
SMILES: CN(C)c1ccc(-c2cn(-c3ccc(OCCO)c([123I])c3)nn2)cc1 [Compound 33, 2-(4-(4-(4-(dimethylamino)phenyl)-1H-1,2,3-triazol-1-yl)-2-iodophenoxy)ethanol]

SMILES: CC(=C(C#N)C#N)c1ccc2cc(N(C)CCF)ccc2c1 [FDDNP, 2-(1-{6-[(2-fluoroethyl)(methyl)amino]-2-naphthyl}ethylidene)malononitrile]
Ki (Amyloid Plaque [3]): 239 nM

specific binding signal, homogenates of control brain tissues (gray and white matters) [4]: low
specific binding, white matter homogenates of AD brain [4]: very low or nonexistent
log P [6]: 2.7
bone uptake (in vivo defluorination) [7]: 4.64 % dose/g
brain washout index (brain2 min/brain30 min) [7]: 2.34
remaining in the brain [7]: 1-2 % dose/g
SMILES: CN(C)c1ccc(-c2cn(-c3ccc(OCC[18F])cc3)nn2)cc1 [[^18F]17a]
specific binding, gray matter homogenates of AD [4]: detected predominantly in the gray matter homogenates of AD
Aβ plaque labeling [5]: most distinctive Aβ plaque-labeling
white matter (background) labeling [5]: minimal level of background in the white matter areas

log P [6]: 2.7
bone uptake (in vivo defluorination) [7]: 18.59 % dose/g
brain washout index (brain2 min/brain30 min) [7]: 2.31
remaining in the brain [7]: 1-2 % dose/g
SMILES: CN(C)c1ccc(-c2cn(-c3ccc(OCCC[18F])cc3)nn2)cc1 [[^18F]17b]
Aβ plaque labeling [5]: most distinctive Aβ plaque-labeling
white matter (background) labeling [5]: minimal level of background in the white matter areas

SMILES: CNc1ccc(-c2cn(-c3ccc([125I])cc3)nn2)cc1 [[^125I]10a]
specific binding signal, homogenates of control brain tissues (gray and white matters) [4]: low
specific binding, gray matter homogenates of AD [4]: detected predominantly in the gray matter homogenates of AD
specific binding, white matter homogenates of AD brain [4]: very low or nonexistent
white matter (background) labeling [5]: significant white matter labeling
log P [6]: 3.0
brain washout index (brain2 min/brain30 min) [8]: 5.66

SMILES: CN(C)c1ccc(-c2cn(-c3ccc([125I])cc3)nn2)cc1 [[^125I]10b]
log P [6]: 3.4
brain washout index (brain2 min/brain30 min) [8]: 3.72

logD [6]: 3.25
logP ([6]; 1-octanol/buffer (0.1 M phosphate)): 3.25
% total counted ([2]; 2 min): 90.41 ± 5.38%
Biodistribution Pancreas ([2]; 2 min): 0.90 ± 0.12 % dose/organ
Biodistribution Pancrease ([2]; 2 min): 5.32 ± 0.08 % dose/g
% total counted ([2]; 60 min): 81.43 ± 5.66%
Biodistribution Pancreas ([2]; 60 min): 0.25 ± 0.11 % dose/organ
Biodistribution Pancrease ([2]; 60 min): 1.35 ± 0.52 % dose/g
% total counted ([2]; 120 min): 80.05 ± 6.33%
Biodistribution Pancreas ([2]; 120 min): 0.19 ± 0.09 % dose/organ
Biodistribution Pancrease ([2]; 120 min): 1.09 ± 0.46 % dose/g
% total counted ([2]; 180 min): 81.95 ± 4.47%
Biodistribution Pancreas ([2]; 180 min): 0.22 ± 0.03 % dose/organ
Biodistribution Pancrease ([2]; 180 min): 1.29 ± 0.14 % dose/g
estimated exposure of lower large intestine [9]: approximately 3.8 rem
estimated exposure of upper large intestine [9]: approximately 3.3 rem
estimated human effective dose (ED) [9]: approximately 1.26 rem
SMILES: CN(C)c1ccc(-c2cn(-c3ccc(OCCO)c([123I])c3)nn2)cc1 [^123I-33, 2-(4-(4-(4-(dimethylamino)phenyl)-1H-1,2,3-triazol-1-yl)-2-[^123I]iodophenoxy)ethanol]
brain penetration and clearance ([2]; normal mice): readily penetrated and was rapidly cleared from the brain
labeling of Aβ plaques in sections from patients with pathologically confirmed AD (Aβ plaques): specifically labeled Aβ plaques
